Assay results: patent US20050208058A1, “Compositions and methods for modulating cell division” (priority 2003, published 2005)
d = 2'-deoxy (DNA)

Key:
Assay type in all cases: cell-based, human
RPE cells [1] = assay: FACS of cells treated in tandem with two siRNAs (p53 dependence); conditions: tandem treatment sip53 then siGCP2; FIG. 6A
Description: For flow cytometry (i.e., fluorescence-activated cell sorter or FACS) experiments, siRNAs were delivered to cells as described above, and were incubated for 50-70 hours. To synchronize cells, nocodazole was added to the cells to a concentration of 5 μg/mL for 12 hours. Cells were stained with propidium iodide and analyzed by flow cytometry (FACSCAN; Becton Dickinson) using FLOJO® software (Tree Star, Inc., Ashland, Oreg.).
(§1) A number of experiments were conducted to determine if p53 is required for the cell cycle arrest phenotype described herein. FACS analysis of tandem siRNA-treated cells was performed as described in Example 2. BrDU and DAPI imaging was performed as described in Example 2. Intracellular p53 was visualized using anti-p53 antibody that is specific for activated p53 (i.e., p53 phosphorylated at Serine 33) (“α-Pser33-p53” provided by Yoichi Taya and described in Kishis et al., J. Biol. Chem., 276:39115-3922, 2001)
In FIG. 6A each line tracing represents FACS data from cells treated in tandem with the siRNAs directed to the gene products indicated above the line. Cells were first treated with siRNA directed to the gene product to the left of the slash. Up to 24 hours later, siRNA directed to the gene product to the right of the slash was added. […] 12 hours before collecting the cells, nocodazole was added to the cells analyzed in the bottom three line tracings. […]

RPE cells [2] = assay: BrDU staining of cells treated in tandem with two siRNAs (p53 dependence); conditions: FIG. 6B
Description: (§2) To further study the effects of silencing centrosomal genes, the following cell cycle experiments were performed using RPE cells. In immunofluorescence experiments, cells were delivered by OLIGOFECTAMINE in a media solution containing between 1-100 nanomolar concentration of siRNAs. After 4 hours of incubation with lipofectamine, cells were washed, and cell cycle progression was assayed by (i) treating cells with 5-Bromo-2′-deoxyuridine (BrDU from Sigma, St Louis, Mo.) for 24 hours and staining for BrDU or (ii) staining cells with antibody to Ki-67 (BD Biosciences) according to manufacturer's instructions. BrDU treatment and staining were performed as follows: after 50-70 hours incubation with siRNA, BrDU was added to cells at a final concentration of 5 μg/ml. Cells were fixed in −20° C. methanol and then treated with 2N HCL at 22° C. for 30 minutes, incubated with 1:500 mouse anti-BrdU antibody (Becton Dickinson, Palo Alto, Calif.), and labeled with 1:1,000 goat FITC-mouse antibody (Molecular Probes, Inc.). Cells were also treated with 4′,6-diamidino-2-phenylindole (DAPI) (Molecular Probes) according to the manufacturer's instructions. Cells were prepared, imaged, and the resulting images were deconvolved as described in Example 1.
as §1

p53 = assay: Western blot of p53 in cytoplasmic and nuclear fractions; conditions: relative to mock or silamin transfected cells; FIG. 6D
From the text: The Western blot shown cytoplasmic (cyt), and nuclear (nuc) cell fractions blotted with an antibody to p53 (from Callbiochem, San Diego, Calif.). Nuclear fractions were blotted with an antibody for H1 as a control for loading.

RPE cells [3] = assay: BrDU incorporation after siRNA treatment and nocodazole synchronization; conditions: relative to control cells (siRNA to lamin), after nocodazole release; FIG. 2A
Description: as §2
Upon release from nocodazole treatment, proliferating cells typically resume cell cycle progression. Chromosomal DNA in the cells was imaged using DAPI (faint ghost-like staining) and/or BrDU (brighter staining). Although DAPI can be used to visualize DNA at any stage of the cell cycle, BrDU is only incorporated into newly synthesized DNA only during S-phase. Thus, BrDU incorporation can be used as a marker of cells that progress through at least one S-phase of the cell cycle. Control cells in this experiment were treated with siRNA to lamin.

CDK2 = CDK2 kinase assay from siRNA-treated cells; conditions: after sustained siRNA treatment, vs siRNA to laminin; FIG. 2C
Description: Kinase assays were done on RPE cells treated with siRNAs as described above. Treated cells were lysed in 1% NP-40 lysis buffer (NP-40 buffer: 20 mM NaPO4 pH 7.4, 1% NP-40, 250 mM NaCl, 5 mM ethylenediaminetetraacetic acid (EDTA), 5 mM dithiothreitol (DTT), 1 mM phenylmethylsulfonyl fluoride, 2 μg/ml leupeptin, and 1.5 μg/ml aprotinin) supplemented with 25 mM-glycerophosphate. For measurement of CDK2-associated activity in vitro, the complexes were immunoprecipitated for 2 hours at 4° C. using anti-cylin A antibody (Santa Cruz Biotechnology). Immunocomplexes were bound to protein A-Sepharose beads for an additional hour at 4° C. and washed four times with lysis buffer followed by one wash with the kinase buffer (20 mM Tris-HCl pH 7.5, 50 mM KCl, 7.5 mM MgCl 2, 1 mM DTT, 25 mM-glycerophosphate, 1 mM phenylmethylsulfonyl fluoride, 2 μg/ml leupeptin, and 1.5 μg/ml aprotinin). […] Phosphorylated proteins were analyzed on 10% SDS-polyacrylamide gels followed by autoradiography and quantified by phosphorimaging (Molecular Imager GS-250; Bio-Rad, Hercules, Calif.).
FIG. 2C is a graph quantifying the results of CDK2 kinase assays from cells treated with siRNA directed to laminin or pericentrin B. CDK2 activity is required for proliferating cells through to progress through the G1 stage of the cell cycle.

Question: What does the source list for “GGACAAGGGUUGGGCUGGG (siRNA; RNA, 3' dTdT, backbone not given here) [sip53, siRNA directed to p53, reference compound]”?
Answer: effect of pre-treatment on siGCP2-mediated block of the nocodazole shift (RPE cells [1]): inhibited the siGCP-mediated block of the nocodazole shift; effect of pretreatment on number of cells that divided after sipericentrin or siGCP2 (RPE cells [2]; sip53 pretreatment, 6C): increased the number of cells that divided; nuclear p53 (Western blot) (p53): nuclear p53 is activated

Question: With “UUGGAACAGCUGCAGCAGA (siRNA; RNA, 3' dTdT, backbone not given here) [pericentrin B, siRNA directed only to pericentrin B (Kendrin)]” as the sequence, how does the “incorporation of BrDU into chromosomal material” value (RPE cells [3]) read?
Answer: clearly inhibited incorporation of BrDU

Question: What about the “cells incorporating BrDU” value (RPE cells [2]; tandem treatment silaminin then indicated siRNA, vs silamin/silamin) of the same sequence?
Answer: substantially fewer

Question: What about the “CDK2 expression and/or activity” value (CDK2) of the same sequence?
Answer: greatly diminished
